These results are taken from patent publication US20250213627A1, “RECOMBINANT MICROORGANISM-BASED METHODS AND COMPOSITIONS FOR TREATMENT OF DISEASE” (Baylor College of Medicine, priority 2021, published 2025).

The subject of data set [1] is DTH reaction mediated by antigen-specific TEM lymphocytes. As to the kind of experiment: Active delayed-type hypersensitivity (DTH) reaction against ovalbumin in the ear. The format is in vivo, rat. On the procedure:
Then, it was assessed if LrS235 gavage could reduce a delayed-type hypersensitivity (DTH) reaction in the ear of rats, a local autoinflammation mediated by antigen-specific TEM lymphocytes. […] In contrast, treatment with LrGusA, capsules filled with ShK-235 or gelatin, and supernatants from the culture of the LrS235 had no effects on inflammation.
Induction and monitoring of an active delayed-type hypersensitivity reaction. Male and female rats were immunized in the flanks with 200 μl of a 1:1 emulsion of ovalbumin (Sigma, St. Louis, MO) in complete Freund's adjuvant (Difco/Becton Dickinson, Franklin Lakes, NJ)(25). After 7 days, under isoflurane anesthesia, the rats were challenged with ovalbumin dissolved in saline in the pinna of one ear; the collateral ear was injected with saline (49). Rats received either a single subcutaneous injection of 0.1 mg/kg ShK-235 or P6N vehicle, a single oral gavage of 1×10^9 cfus LrS235 or LrGusA, oral gavage of 1 ml supernatant of LrS235, or a capsule filled with ShK-235 or gelatin immediately before the ear challenge. The DTH reaction was measured 24 hours post-challenge as the thickness of the ear using a spring-loaded micrometer (Mitutoyo, Japan) and ear inflammation was determined by comparing the ear thickness of the ovalbumin-challenged with the saline-challenged ear from each (49). The animals were euthanized after the ear measurements.

Data set [2] is described as follows: Bioavailability and pharmacokinetics of ShK-235 in circulation of healthy rats. The format is in vivo, rat. The method, then:
To test whether the intestinal environment interferes with LrS235 secretion of ShK-235, or prevents it from crossing into the circulation, healthy rats were gavaged with a single bolus of 1×10^9 CFU of either LrGusA or LrS235, both after SppIP induction, and 6 hours later, sera was collected and the ability of serum samples to block Kv1.3 channels tested by whole-cell patch-clamp.
Sera was taken at various timepoints ranging from 3 hours to 72 hours after the single bolus of LrS235. Peak levels of ShK-235 were detected 6 hours after LrS235 delivery, with the range of functional activity from 3 hours to 48 hours post-gavage (FIG. 8C).
Bioavailability and pharmacokinetics of ShK-235 after oral delivery. Male rats received a single oral gavage of either 1×10^9 cfus LrS235 or an enteric-coated capsule filled with ShK-235. Blood was collected via the saphenous vein at the different time points indicated in the figure, the last blood draw being a terminal cardiac puncture (48). Serum samples were assayed for Kv1.3 block by patch-clamp electrophysiology.

Data set [3] concerns CIA and PIA rat models of RA. As to the kind of experiment: Early and late treatment of CIA and PIA by LrS235. The conditions noted are these: in vivo. The text has this: Early and late treatment of CIA and PIA by LrS235. The objective of these experiments is to define the benefits of LrS235 as an oral delivery system for ShK-235 in reducing joint damage and local and systemic inflammation in rat models of RA and compare its efficacy to that of injected ShK-235 and ShK-235 delivered via an enteric-coated capsule. CIA is induced in Lewis rats by two injections at a week interval of an emulsion of porcine collagen II in incomplete Freund's adjuvant at the base of the tail^36,40,65,66. PIA is induced in DA rats by the single injection of pristane at the base of the tail. Clinical signs of CIA are observed in some aspects 3-6 days after the booster injection and clinical signs of PIA are observed in some aspects 2-3 weeks after the pristane injection. Clinical signs are scored daily based on the number of joints affected and the severity of the swelling, as in FIG. 7A. […]
Rats start receiving daily treatments either at onset of clinical signs (early treatment), or 10 days later, at peak of disease severity (late treatment). […] Rats are monitored daily for body weight and scored for clinical signs of arthritis using a standard scoring method^36,40,65,66 described in herein (FIG. 7A). […] At the end of the trials, animals are euthanized for collection of blood, hind limbs, inguinal lymph nodes, and small and large intestines, and the following is measured: […]

A further data set deals with anti-ShK-235 IgG. As to the kind of experiment: Immunogenicity ELISA on sera of CIA rats. The format is in vivo, rat. The conditions noted are these: sera at end of 21-day CIA trial. On the procedure: To test if ShK-235 produced by LrS235 is immunogenic, the sera of rats were assessed at the end of the 21-day CIA trial shown in FIG. 8 for anti-ShK-235 IgG by ELISA assay. Plates coated with collagen II and HsTX1[R14A] were used as controls. HsTX1[R14A] is another peptide blocker of Kv1.3 with no sequence or structural homology to ShK-235.
Immunogenicity assays in rats with CIA. High-protein binding 96-well microplates (3855, ThermoFisher, MA, US) were coated overnight with 10 μg/ml of either porcine collagen II (20031, Chondrex, Woodinville, WI), ShK-235, or HsTX1[R14A], dissolved in PBS. Non-specific binding sites were blocked with PBS+5% skimmed milk and washed with PBS+0.05% Tween 20 before adding serum from the CIA rats, diluted in PBS. After washes, anti-rat IgG antibodies conjugated to horseradish peroxidase (1 μg/ml; Pierce catalog 31471, lot UA280036) were added to all the wells. One-step TMB-ELISA (34028, ThermoFisher, MA, US) was used to detect absorbance on a plate reader at 650 nm.

The next data set deals with Kv1.3 (Mus musculus, UniProt P16390). Description: Block of Kv1.3 channel, reported potency. The conditions noted are these: FIGS. 5A-5B; n=4 cells per concentration. Type of data set: cell-based.

SMILES strings stand for the structures. “Also recorded” adds a separate entry of the source.

Kv1.3, sequence (P16390 whole entry): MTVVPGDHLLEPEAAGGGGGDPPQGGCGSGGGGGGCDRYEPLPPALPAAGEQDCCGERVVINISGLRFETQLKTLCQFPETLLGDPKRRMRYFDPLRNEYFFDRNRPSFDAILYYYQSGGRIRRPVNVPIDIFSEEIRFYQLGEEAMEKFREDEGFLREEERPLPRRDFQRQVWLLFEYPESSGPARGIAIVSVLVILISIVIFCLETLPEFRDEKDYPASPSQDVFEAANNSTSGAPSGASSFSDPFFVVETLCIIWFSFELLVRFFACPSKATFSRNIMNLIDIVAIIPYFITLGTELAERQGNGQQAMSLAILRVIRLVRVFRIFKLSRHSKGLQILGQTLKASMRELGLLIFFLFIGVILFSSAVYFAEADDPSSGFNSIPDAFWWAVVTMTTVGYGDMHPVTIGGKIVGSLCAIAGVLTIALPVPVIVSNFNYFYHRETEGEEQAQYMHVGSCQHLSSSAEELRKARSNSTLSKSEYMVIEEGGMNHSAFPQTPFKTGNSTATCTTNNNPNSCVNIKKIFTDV

The term IC50 denotes the concentration that inhibits the measured activity by half. Read a low IC50 as inhibition by little substance. Regarding `CC[C@H](C)[C@@H]1NC(=O)[C@H](CO)NC(=O)[C@H](Cc2c[nH]cn2)NC(=O)[C@H](CCCCN)NC(=O)[C@@H]2CSSC[C@@H]3NC(=O)[C@H]([C@@H](C)O)NC(=O)[C@H](CCCCN)NC(=O)[C@H](CCCNC(=N)N)NC(=O)[C@H](CSSC[C@H](NC(=O)[C@H](CCCNC(=N)N)NC(=O)[C@H](CO)NC(=O)[C@H](CCCCN)NC(=O)[C@@H]4CCCN4C(=O)[C@H]([C@@H](C)CC)NC(=O)[C@H]([C@@H](C)O)NC(=O)[C@H](CC(=O)O)NC(=O)[C@H]([C@@H](C)CC)NC(=O)[C@@H](NC(=O)[C@H](CO)NC(=O)[C@@H](N)CCCNC(=N)N)CSSC[C@@H](C(=O)N[C@@H](C)C(=O)O)NC(=O)[C@H]([C@@H](C)O)NC(=O)CNC3=O)C(=O)N[C@@H]([C@@H](C)O)C(=O)N[C@@H](C)C(=O)N[C@@H](Cc3ccccc3)C(=O)N[C@@H](CCCCN)C(=O)N2)NC(=O)[C@H](Cc2ccccc2)NC(=O)[C@H](CO)NC(=O)[C@H](CC(C)C)NC(=O)[C@H](CCCNC(=N)N)NC(=O)[C@H](Cc2ccc(O)cc2)NC(=O)[C@H](CCCCN)NC1=O` [ShK-235], the “Effect on ear inflammation” value in data set [1] (oral enteric-coated capsule filled with ShK-235) is on record as “no effects”. Moreover, in data set [1] (single subcutaneous injection 0.1 mg/kg), the “Reduction of ear inflammation compared with vehicle control” value is given as 58%. The “Serum levels of ShK-235 after enteric-coated capsule” value in data set [2] (oral ACRYL-EZE coated capsule filled with 0.3 mg ShK-235) is “no measurable serum levels”. For the same molecule, the level at time molar in data set [2] (rat, in vivo, injection of 0.1 mg/kg, read-out: Level detected in the circulation after injection) lay in the range of 0.6 to 0.8 nM. Further, in data set [3], the “Effect on incidence and severity of CIA and PIA” value is “reduce the incidence”. Besides, the “Anti-ShK-235 IgG titers / immunogenicity” value with anti-ShK-235 IgG is recorded as “very low titers; also recorded: not immunogenic”. At Kv1.3, this molecule yielded an IC50 of 0.062 nM.
